Where two headings read alike, the source gives them in different places.
Key:
PTP-1B = molecular target: T1, PTP-1B (Homo sapiens, UniProt P18031); assay: PTP-1B enzyme inhibition assay; format: biochemical; conditions: in vitro enzyme inhibition; for IC50: read-out: Antidiabetic Activity (PTP-1B) IC50 Values (converted)
T1 sequence (P18031 1-435): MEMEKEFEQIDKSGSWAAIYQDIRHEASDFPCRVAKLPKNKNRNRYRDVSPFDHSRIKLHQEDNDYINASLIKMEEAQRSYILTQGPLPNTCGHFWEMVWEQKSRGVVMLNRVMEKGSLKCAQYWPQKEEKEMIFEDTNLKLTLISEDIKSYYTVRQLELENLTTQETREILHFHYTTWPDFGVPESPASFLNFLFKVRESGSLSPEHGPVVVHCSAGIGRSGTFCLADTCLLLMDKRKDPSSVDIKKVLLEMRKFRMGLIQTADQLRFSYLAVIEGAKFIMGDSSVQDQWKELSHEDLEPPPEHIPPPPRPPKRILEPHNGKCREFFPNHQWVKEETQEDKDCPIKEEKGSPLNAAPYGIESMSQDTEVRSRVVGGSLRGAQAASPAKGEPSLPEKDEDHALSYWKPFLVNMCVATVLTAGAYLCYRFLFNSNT
Procedure: (§1) The antidiabetic effect of gallic acid was evaluated in vitro on inhibitory enzymes (α-glucosidase and α-amylase). Antidiabetic activity was determined using PTP-1B inhibition and α-glucosidase procedures. PTP-1B is a negative regulator of the insulin signaling pathway. All extracts of G. collinum were obtained after a period of extraction of 2 h. […] It is well known that polyphenols can provide health benefits to humans attributed to their strong radical-scavenging and antioxidant effects.

α-glucosidase = α-glucosidase (Saccharomyces cerevisiae, UniProt P53341); format: biochemical
Procedure: as §1
α-Glucosidase inhibitory activities were evaluated according to the chromogenic method described by.

[1] = DPPH scavenging assay (antioxidant activity); conditions: 30 min, 517 nm
Procedure: The majority of the antioxidant activities (such as free radical scavenging) of herbal medicines, vegetables and fruits may be due to their phenolic compounds. A lower IC50 value than the standard vitamin C implied a significant antioxidant activity of the tested samples.
Antioxidant activity was measured using the DPPH (1,1-diphenyl-2-picrylhydrazyl) scavenging assay procedure as published in the literature. The extracts were dissolved in DMSO in a concentration of 100 µg/mL. Different concentrations of each extract were prepared in DMSO. Sample solution in different concentrations was added at 2.5 mL in each well of the 96 micro well plate. Into each well was added 1 mL of 0.3 mM DPPH solution in ethanol to produce the test solutions. DMSO (1 mL) was added to produce the blank solutions. Negative control sample was prepared by mixing 1 mL of DPPH solution with 2.5 mL of DMSO. The solutions were kept in the dark at room temperature for 30 min. Absorbance was measured at the wavelength of 517 nm. Ascorbic acid (vitamin C) was used as the standard sample.

α-glucosidase, sequence (P53341 whole entry): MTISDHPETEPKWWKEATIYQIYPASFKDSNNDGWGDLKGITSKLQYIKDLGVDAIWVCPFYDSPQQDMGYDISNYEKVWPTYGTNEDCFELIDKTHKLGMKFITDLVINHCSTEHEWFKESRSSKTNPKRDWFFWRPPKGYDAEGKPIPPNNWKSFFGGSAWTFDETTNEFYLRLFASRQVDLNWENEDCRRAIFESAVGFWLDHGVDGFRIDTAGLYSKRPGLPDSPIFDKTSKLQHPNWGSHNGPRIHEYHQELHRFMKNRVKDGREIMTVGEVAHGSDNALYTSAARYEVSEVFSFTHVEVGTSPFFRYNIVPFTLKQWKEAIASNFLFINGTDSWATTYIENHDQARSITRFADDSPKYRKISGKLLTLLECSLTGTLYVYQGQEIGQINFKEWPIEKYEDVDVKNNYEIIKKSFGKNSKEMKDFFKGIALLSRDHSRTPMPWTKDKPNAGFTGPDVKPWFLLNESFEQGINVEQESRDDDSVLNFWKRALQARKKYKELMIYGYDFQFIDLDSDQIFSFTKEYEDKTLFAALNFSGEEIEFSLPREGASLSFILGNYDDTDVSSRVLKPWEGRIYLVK

For `O=C(O)c1cc(O)c(O)c(O)c1` [Gallic acid], the “Antidiabetic Activity (PTP-1B) IC50 Values” (PTP-1B) was “No effect”.
With `O=C(O)/C=C/c1ccc(O)c(O)c1` [Caffeic acid] the IC50 (PTP-1B) was 199 µM.
In the case of `Oc1cc(O)c2c(c1)O[C@H](c1ccc(O)c(O)c1)[C@H](O)C2` [Epicatechin, (–)-Epicatechin], the IC50 (PTP-1B) is reported as 0.792 µM and the “antidiabetic activities in the α-glucosidase inhibition assay (in words)” value (α-glucosidase) is reported as “potent antidiabetic activities”.
For `O=C1O[C@H]([C@@H](O)CO)C(O)=C1O` [Vitamin C, Ascorbic acid], the “Antioxidant Activity IC50 Values” [1] was 5.34 ± 0.42 µg/mL.
For `O=c1c(O)c(-c2ccc(O)c(O)c2)oc2cc(O)cc(O)c12` [Quercetin], the “antidiabetic activities in the α-glucosidase inhibition assay (in words)” value (α-glucosidase; in vitro enzyme inhibition) was “potent antidiabetic activities”.
With `CC[C@H](CC[C@@H](C)[C@H]1CC[C@H]2[C@@H]3CC=C4C[C@@H](O[C@@H]5O[C@H](CO)[C@@H](O)[C@H](O)[C@H]5O)CC[C@]4(C)[C@H]3CC[C@]12C)C(C)C` [Daucosterol, β-Sitosterol-3-O-β-D-glucopyranoside] the “Antidiabetic Activity (PTP-1B) IC50 Values” (PTP-1B) was “No effect”.
With `COc1cc2c(=O)oc3c(OC)c(OC)cc4c(=O)oc(c1OC)c2c34` [3,3′,4,4′-Tetra-O-methylellagic acid] the IC50 (PTP-1B) was 60.4 µM and the “Antidiabetic Activity (α-Glucosidase) IC50 Values” (α-glucosidase; in vitro enzyme inhibition) was “No effect”.
With `O=C(O[C@@H]1O[C@@H]2COC(=O)c3cc(O)c(O)c(O)c3-c3c(cc(O)c(O)c3O)C(=O)O[C@H]([C@H]1O)[C@@H]2O)c1cc(O)c(O)c(O)c1` [Corilagin, Corilagin (1-O-galloyl-3,6-O-hexahydroxydiphenoyl-β-D-glucose)] the IC50 (PTP-1B) was 1.37 µM and the “antidiabetic activities in the α-glucosidase inhibition assay (in words)” value (α-glucosidase; in vitro enzyme inhibition) was “potent antidiabetic activities”.
With `COc1c(O)cc2c(=O)oc3c(OC)c(O)cc4c(=O)oc1c2c34` [3,3′-Di-O-methylellagic acid] the IC50 (PTP-1B) was 19 µM and the “Antidiabetic Activity (α-Glucosidase) IC50 Values” (α-glucosidase; in vitro enzyme inhibition) was “No effect”.
For `Oc1cc(O)c2c(c1)O[C@H](c1cc(O)c(O)c(O)c1)[C@H](O)C2` [Epigallocatechin, (–)-Epigallocatechin (3,3′,4,5,5′,7-flavanhexol)], the “Antidiabetic Activity (PTP-1B) IC50 Values” (PTP-1B) was “No effect”.
In the case of `Oc1cc(O)c2c(c1)OC(c1ccc(O)c(O)c1)C(O)C2` (single isomer, unassigned; (+)) [Catechin, (+)-Catechin], the IC50 (PTP-1B) is reported as 2.14 µM and the “antidiabetic activities in the α-glucosidase inhibition assay (in words)” value (α-glucosidase) is reported as “potent antidiabetic activities”.

Source: paper PMC6152703, “Evaluation of the Antidiabetic Activity and Chemical Composition of Geranium collinum Root Extracts—Computational and Experimental Investigations” (Molecules : A Journal of Synthetic Chemistry and Natural …, 2017)
